Paper PMC11705080 (2025)

What was measured:
[1] = tested on: FRET-2 (DNA, hairpin) GCATTATAATGCAAAAAGCATTATAATGC; experiment: fluorescence (FRET) melting; details: 10 μM compound (r = 10), 1.0 μM DNA; control Tm 61.5 °C
[2] = tested on: poly[d(G-C)2] (DNA, polymer) GC; experiment: ethidium bromide displacement (fluorescence); details: 12.5 μM EtBr displaced, 12.5 μM DNA, 1 h, per base
[3] = tested on: FRET-4 (DNA, hairpin) ATGGCCGGCCGGAAAAACCGGCCGGCCAT; experiment: fluorescence (FRET) melting; details: 10 μM compound (r = 10), 1.0 μM DNA; control Tm 83.0 °C; condensation; +1.21 °C at r = 2.5
[4] = tested on: FRET-1 (DNA, hairpin) CGCGAATTCGCGAAAAACGCGAATTCGCG; experiment: fluorescence (FRET) melting, Bard equation; details: 1.0 μM DNA; r = 0–7; derived from Tm fraction bound; 37 °C pre-incubation
[5] = tested on: poly[d(G-C)2] (DNA, polymer) GC; experiment: limited-bound ethidium bromide fluorescence quenching, Hill model; details: Na+ (40 mM NaCl); 80 mM HEPES pH 7.2; 5 μM EtBr, 25 μM DNA; EtBr fluorescence quenched; per base
[6] = tested on: FRET-1 (DNA, hairpin) CGCGAATTCGCGAAAAACGCGAATTCGCG; experiment: fluorescence (FRET) melting; details: 7 μM compound (r = 7), 1.0 μM DNA; control Tm 74.9 °C
[7] = tested on: poly[d(A-T)2] (DNA, polymer) AT; experiment: limited-bound ethidium bromide fluorescence quenching, Hill model; details: Na+ (40 mM NaCl); 80 mM HEPES pH 7.2; 5 μM EtBr, 25 μM DNA; EtBr fluorescence quenched; per base
[8] = tested on: F-3 (DNA, hairpin) ATCGGCGCCGATAAAAAATCGGCGCCGAT; experiment: MST instrument, initial fluorescence, Hill model; details: Na+ (25 mM NaCl); 80 mM HEPES; 1 μM DNA; low 10^–5 M; fluorescence decrease ascribed to DNA condensation
[9] = tested on: FRET-3 (DNA, hairpin) ATCGGCGCCGATAAAAAATCGGCGCCGAT; experiment: fluorescence (FRET) melting; details: 10 μM compound (r = 10), 1.0 μM DNA; control Tm 79.7 °C; condensation; +0.48 °C at r = 2
[10] = tested on: FRET-2 (DNA, hairpin) GCATTATAATGCAAAAAGCATTATAATGC; experiment: fluorescence (FRET) melting, Bard equation; details: 1.0 μM DNA; r = 0–10; derived from Tm fraction bound; 37 °C pre-incubation
[11] = tested on: F-4 (DNA, hairpin) ATGGCCGGCCGGAAAAACCGGCCGGCCAT; experiment: MST instrument, initial fluorescence, Hill model; details: Na+ (25 mM NaCl); 80 mM HEPES; 1 μM DNA; low 10^–5 M; fluorescence decrease ascribed to DNA condensation
[12] = tested on: F-2 (DNA, hairpin) GCATTATAATGCAAAAAGCATTATAATGC; experiment: MST instrument, initial fluorescence, Hill model; details: Na+ (25 mM NaCl); 80 mM HEPES; 1 μM DNA; fluorescence decrease ascribed to DNA condensation
[13] = tested on: F-1 (DNA, hairpin) CGCGAATTCGCGAAAAACGCGAATTCGCG; experiment: MST instrument, initial fluorescence, Hill model; details: Na+ (25 mM NaCl); 80 mM HEPES; 1 μM DNA; low 10^–5 M; fluorescence decrease ascribed to DNA condensation
[14] = tested on: poly[d(A-T)2] (DNA, polymer) AT; experiment: ethidium bromide displacement (fluorescence); details: 12.5 μM EtBr displaced, 12.5 μM DNA, 1 h, per base
[15] = apparent, complex prepared in situ, Kapp = Kb × 12.6/C50

O=[N+]([O-])[O-].O=[N+]([O-])[O-].O=[N+]([O-])[O-].O=[N+]([O-])[O-].[Cu+2].[Cu+2].c1cnc2c(c1)cc(-n1cc(CCCCc3cn(-c4cc5cccnc5c5ncccc45)nn3)nn1)c1cccnc12
Δ TM [1]: + 3.6 °C
C50 [2]: 6.318 µM
Kapp [2, 15]: 1.75e+07 M⁻¹
Δ TM [3]: - 6.3 °C
Kb [4]: 1.06e+07 M⁻¹
Q (EC50) [5]: 12.86 µM
Δ TM [6]: + 4.5 °C
Q (EC50) [7]: 11.18 µM
EC50 [8]: 11.39 µM
Δ TM [9]: - 3.7 °C
Kb [10]: 4.38e+08 M⁻¹
EC50 [11]: 11.25 µM
EC50 [12]: 9.2 × 10^–6 M
EC50 [13]: 11.92 µM
C50 [14]: 3.911 µM
Kapp [14, 15]: 2.84e+07 M⁻¹
